Consider 17 compounds from publication doi:10.1101/2024.08.19.608619, “Discovery of potent SARS-CoV-2 nsp3 macrodomain inhibitors uncovers lack of translation to cellular antiviral response” (bioRxiv, 2024).

Molecules are shown by their SMILES. Where two headings read alike, the source gives them in different places.

Test [1] concerns the target T1, SARS-CoV-2 nsp3-mac1 (Severe acute respiratory syndrome coronavirus 2, UniProt P0DTD1). Description: biochemical. In kind it is biochemical. To be noted: SARS-CoV-2 nsp3 macrodomain TR-FRET single point.
The target in test [2] is T1, SARS-CoV-2 nsp3-mac1. As to the kind of experiment: biochemical. Also on record: SARS-CoV-2 nsp3 macrodomain TR-FRET single point, per cent inhibition, n=2.
[3] abbreviates: read-out: perc_inhibition_mean, batch_name=ASAP-0000309-001.
The mark [4] stands for this setting: read-out: perc_inhibition_mean, batch_name=ASAP-0000292-001.
The mark [5] stands for this setting: read-out: perc_inhibition_mean, batch_name=ASAP-0000473-001.
Setting [6] is: read-out: perc_inhibition_mean, batch_name=ASAP-0000313-001.
Setting [7] is: read-out: perc_inhibition_mean, batch_name=ASAP-0000465-001.
Setting [8] is: read-out: perc_inhibition_mean, batch_name=ASAP-0000452-001.
Setting [9] is: read-out: perc_inhibition_mean, batch_name=ASAP-0000427-001.
Where [10] appears, read: read-out: perc_inhibition_mean, batch_name=ASAP-0000252-001.
Where [11] appears, read: read-out: perc_inhibition_mean, batch_name=ASAP-0000426-001.
Where [12] appears, read: read-out: perc_inhibition_mean, batch_name=ASAP-0000357-001.

For `CN(C)[C@@H]1CCCN(C(=O)c2cnc3c(c2)c(=O)[nH]c(=O)n3C)CC1` [ASAP-0000058], at SARS-CoV-2 nsp3-mac1 [1] (concentration 50.0 uM), the perc_inhibition_mean was -8.971%. Moreover, at SARS-CoV-2 nsp3-mac1 [2] (read-out: perc_inhibition_mean, batch_name=ASAP-0000058-001), the inhibition at 50 µM was -8.97%.

In the case of `COc1cccc(NC(=O)c2ccc(NC(=O)Nc3ccccc3)cc2)n1` [ASAP-0000309], the perc_inhibition_mean at SARS-CoV-2 nsp3-mac1 [1] (concentration 49.75 uM, n=2) stood at 4.647%; at SARS-CoV-2 nsp3-mac1 [1] (concentration 99.5 uM, n=2) it was 5.367%. Moreover, on SARS-CoV-2 nsp3-mac1 [2] (setting [3]), the inhibition at 49.75 µM was 4.65%. For the same compound, the inhibition at 99.5 µM on SARS-CoV-2 nsp3-mac1 [2] (setting [3]) stood at 5.37%.

As for `CN(C(=O)c1ccc(NC(=O)Nc2ccccc2)cc1)[C@@H]1CN2CCC1CC2` [ASAP-0000292], the perc_inhibition_mean at SARS-CoV-2 nsp3-mac1 [1] (concentration 49.75 uM, n=2) is on record as -4.01%; on SARS-CoV-2 nsp3-mac1 [1] (concentration 99.5 uM, n=2), 2.773%. Moreover, the inhibition at 49.75 µM at SARS-CoV-2 nsp3-mac1 [2] (setting [4]) was -4.01%. Further, the inhibition at 99.5 µM on SARS-CoV-2 nsp3-mac1 [2] (setting [4]) amounted to 2.77%.

Turning to `C[C@@H](Nc1ncnc2[nH]ccc12)c1cnn(CC2CCC2)c1` [ASAP-0000473], the perc_inhibition_mean at SARS-CoV-2 nsp3-mac1 [1] (concentration 49.75 uM) was -0.451%; at SARS-CoV-2 nsp3-mac1 [1] (concentration 99.5 uM) it was 4.9%. The inhibition at 49.75 µM on SARS-CoV-2 nsp3-mac1 [2] (setting [5]) is -0.451%. The inhibition at 99.5 µM on SARS-CoV-2 nsp3-mac1 [2] (setting [5]) is 4.9%.

As for `O=C(OCc1ccc(Cl)nc1)c1ncnc2[nH]ccc12` [ASAP-0000066], the perc_inhibition_mean at SARS-CoV-2 nsp3-mac1 [1] (concentration 50.0 uM) was found to be 6.084%. In addition, at SARS-CoV-2 nsp3-mac1 [2] (read-out: perc_inhibition_mean, batch_name=ASAP-0000066-001), the inhibition at 50 µM came out at 6.08%.

Take `Cc1noc(CCCNC(=O)c2ncnc3[nH]ccc23)n1` [ASAP-0000116]: the perc_inhibition_mean at SARS-CoV-2 nsp3-mac1 [1] (concentration 50.0 uM) was -5.133%. For the same compound, the inhibition at 50 µM on SARS-CoV-2 nsp3-mac1 [2] (read-out: perc_inhibition_mean, batch_name=ASAP-0000116-001) is -5.13%.

`O=C(Nc1ccccc1)Nc1ccc(C(=O)Nc2ncccc2F)cc1` [ASAP-0000313]: the perc_inhibition_mean on SARS-CoV-2 nsp3-mac1 [1] (concentration 49.75 uM, n=2) was determined as 4.588%. Further, at SARS-CoV-2 nsp3-mac1 [1] (concentration 99.5 uM, n=2), the perc_inhibition_mean came out at 10.201%. For the same compound, on SARS-CoV-2 nsp3-mac1 [2] (setting [6]), the inhibition at 49.75 µM worked out at 4.59% and the inhibition at 99.5 µM is 10.2%.

Regarding `CC(C)[C@H]1CN(c2ncnc3[nH]ccc23)[C@H]1C(C)C` [ASAP-0000465], the perc_inhibition_mean at SARS-CoV-2 nsp3-mac1 [1] (concentration 49.75 uM) was 0.348%. Moreover, at SARS-CoV-2 nsp3-mac1 [1] (concentration 99.5 uM), the perc_inhibition_mean was -2.201%. On SARS-CoV-2 nsp3-mac1 [2] (setting [7]), the inhibition at 49.75 µM is 0.348% and the inhibition at 99.5 µM was -2.2%.

Regarding `CC(C)[C@@H](Nc1ncnc2[nH]ccc12)C(F)F` [ASAP-0000452], the perc_inhibition_mean at SARS-CoV-2 nsp3-mac1 [1] (concentration 49.75 uM) came to 81.614%. Moreover, the perc_inhibition_mean at SARS-CoV-2 nsp3-mac1 [1] (concentration 99.5 uM) turned out to be 91.659%. At SARS-CoV-2 nsp3-mac1 [2] (setting [8]), the inhibition at 49.75 µM came to 81.6% and the inhibition at 99.5 µM stood at 91.7%.

In the case of `O=C1C[C@@]2(CCCN(c3ncnc4[nH]ccc34)C2)CN1` [ASAP-0000094], on SARS-CoV-2 nsp3-mac1 [1] (concentration 50.0 uM), the perc_inhibition_mean is -2.451%. Also, on SARS-CoV-2 nsp3-mac1 [2] (read-out: perc_inhibition_mean, batch_name=ASAP-0000094-001), the inhibition at 50 µM was -2.45%.

Consider `CC[C@@H]1C[C@@H](C(=O)Nc2ncnc3[nH]c(C)c(C)c23)CCO1` [ASAP-0000201], for which the perc_inhibition_mean on SARS-CoV-2 nsp3-mac1 [1] (concentration 50.0 uM) is given as 12.08%. Further, the inhibition at 50 µM at SARS-CoV-2 nsp3-mac1 [2] (read-out: perc_inhibition_mean, batch_name=ASAP-0000201-001) came out at 12.1%.

For the compound `CN(c1ncnc2[nH]ncc12)[C@@H](CCO)c1ccccc1` [ASAP-0000427], the perc_inhibition_mean on SARS-CoV-2 nsp3-mac1 [1] (concentration 49.75 uM) was found to be 8.856%. The perc_inhibition_mean at SARS-CoV-2 nsp3-mac1 [1] (concentration 99.5 uM) is on record as 5.14%. In addition, at SARS-CoV-2 nsp3-mac1 [2] (setting [9]), the inhibition at 49.75 µM was found to be 8.86% and the inhibition at 99.5 µM came to 5.14%.

In the case of `c1nc(NCc2cnc3sccn23)c2[nH]cnc2n1` [ASAP-0000252], the perc_inhibition_mean is given as -4.782% on SARS-CoV-2 nsp3-mac1 [1] (concentration 50.0 uM) and 5.65% on SARS-CoV-2 nsp3-mac1 [1] (concentration 100.0 uM). In addition, on SARS-CoV-2 nsp3-mac1 [2] (setting [10]), the inhibition at 50 µM is -4.78%. Besides, on SARS-CoV-2 nsp3-mac1 [2] (setting [10]), the inhibition at 100 µM stood at 5.65%.

For `CC(C)c1nc([C@@H](C)Nc2ncnc3nc[nH]c23)cs1` [ASAP-0000426], the perc_inhibition_mean on SARS-CoV-2 nsp3-mac1 [1] (concentration 49.75 uM) was found to be 2.645%; at SARS-CoV-2 nsp3-mac1 [1] (concentration 99.5 uM), 3.067%. Besides, at SARS-CoV-2 nsp3-mac1 [2] (setting [11]), the inhibition at 49.75 µM amounted to 2.65%. Moreover, the inhibition at 99.5 µM on SARS-CoV-2 nsp3-mac1 [2] (setting [11]) came out at 3.07%.

In the case of `O=C1CCC[C@@H](C(=O)N(CCC(=O)N2CCNCC2)Cc2cccc(Cl)c2)N1` [ASAP-0000357], the perc_inhibition_mean at SARS-CoV-2 nsp3-mac1 [1] (concentration 49.75 uM) is 2.418%. Also, the perc_inhibition_mean on SARS-CoV-2 nsp3-mac1 [1] (concentration 99.5 uM) was -3.31%. For the same compound, at SARS-CoV-2 nsp3-mac1 [2] (setting [12]), the inhibition at 49.75 µM turned out to be 2.42% and the inhibition at 99.5 µM is -3.31%.

For the compound `O=C(Cc1ccc(F)cc1)Nc1ccc2[nH]ncc2c1` [ASAP-0000032], the perc_inhibition_mean at SARS-CoV-2 nsp3-mac1 [1] (concentration 50.0 uM) is recorded as 1.139%. In addition, the inhibition at 50 µM at SARS-CoV-2 nsp3-mac1 [2] (read-out: perc_inhibition_mean, batch_name=ASAP-0000032-001) was 1.14%.

Take `O=S1(=O)CCC[C@@H](CNc2ncnc3n[nH]cc23)C1` [ASAP-0000051]: the perc_inhibition_mean on SARS-CoV-2 nsp3-mac1 [1] (concentration 50.0 uM) amounted to 4.593%. Also, the inhibition at 50 µM at SARS-CoV-2 nsp3-mac1 [2] (read-out: perc_inhibition_mean, batch_name=ASAP-0000051-001) came to 4.59%.
